Source: PMC11475369, “Exploring the Potential of Synthetic Cannabinoids: Modulation of Biological Activity of Normal and Cancerous Human Colon Epithelial Cells” (Cells, 2024)
Converted amounts (≈) assume the structure as drawn. “And” between values parts separate entries of the source, which are not always exact repeats. Equal entries are not always repeated.

How the values were obtained:
[1] = system: CCD 841 CoTr cells; assay: Flow cytometry (PI) cell cycle analysis of CCD 841 CoTr cells; type: cell-based, human; conditions: 25 μg/mL, 24 h
Procedure: (§1) In the flow cytometric study, we assessed the impact of the cannabinoids at a concentration of 25 μg/mL on the distribution of cell cycle phases in the normal and cancer cells after 24 h incubation. Both adhered, and non-adsorbed (floating) cells were used to perform the analyses. They were collected after 24 h of incubation with the tested cannabinoids and centrifuged (3000 rpm/5 min.). Next, the cell pellet was rinsed and suspended in PBS w/o Ca^2+ and Mg^2+ ions and centrifuged again (3000 rpm/5 min.). The cell pellet was suspended and fixed in 70% ethanol (1 mL). Untreated cells served as a control. The cells were stored at −20 °C for 1 week. After that time, in accordance with the manufacturer protocol, the cells were subjected to the PI staining procedure (PI/RNase Staining Buffer, BD PharmingenTM, BD Biosciences, San Jose, CA, USA). Briefly, 1 mL of PBS w/o Ca^2+ and Mg^2+ ions was added to 1 mL of ethanol and incubated with gentle stirring for 5 min. at room temperature. Next, the cells were centrifuged (3000 rpm/5 min.) and suspended in PBS w/o Ca^2+ and Mg^2+ ions with gentle stirring for 5 min. at room temperature. The cells were centrifuged once again (3000 rpm/5 min.) and the cell pellet was suspended in 500 μL of PI/RNase Staining Buffer. The incubation was carried out for 15 min. at room temperature. Finally, the intensity of the PI fluorescence was measured using FACS Calibur (BD Pharmingen^TM). The obtained data were analyzed using Cell Quest Pro Version 6.0. for the Macintosh operating system (BD Pharmingen^TM). The percentage of cells in the appropriate phases of the cycle was calculated based on all analyzed gated cells. A total of 10,000 events were measured per sample.

[2] = system: HT29 cells; assay: MTT assay, metabolic activity of HT29 cells; type: cell-based; conditions: Homo sapiens, HT-29; HT29 colon tumor cells, 24 h incubation; read-out: IC50 Values (MTT method)
Procedure: (§2) The HT29 cell line (ATCC no. HTB-38) (human colon adenocarcinoma) was used in the present study. Cells were cultivated in RPMI 1640 culture medium with 10% fetal calf serum (FCS) (GibcoTM, Paisley, UK), supplemented with antibiotics (100 U/mL penicillin and 100 μg/mL streptomycin) (Sigma, St. Louis, MO, USA). The cell culture was performed in standard conditions, i.e., at 37 °C in a humidified atmosphere with 5% CO2. The CCD 841 CoTr cell line (ATCC no. CRL-1807) (human normal colon epithelium) was cultivated in RPMI 1640 +DMEM (1:1) medium (Sigma, St. Louis, MO, USA) with 10% FCS and the addition of antibiotics. The culture was carried out at 34 °C in a 5% CO2/95% air atmosphere.
After seeding (1 × 10^5 cells/mL) in a 96-well plate, the cells were incubated for 24 h. Thereafter, the tested compounds (100 μL) at a concentration range of 0–200 μg/mL in the culture medium were added to the wells (100 μL). The incubation lasted for 24 h. After that time, an MTT solution (5 mg/mL, 25 μL/well) was added to each well. The incubation was continued for another 3 h. After the incubation, 10% sodium dodecyl sulfate (SDS) in 0.01 M HCl (100 μL) was added in order to dissolve the purple formazan crystals. Solubilization was carried out overnight. Finally, spectrophotometric measurement was performed at 570 nm using an EL800 Universal Microplate Reader (BioTek Instruments, Winooski, VT, USA).

[3] = system: HT29 cells; assay: Flow cytometry (PI) cell cycle analysis of HT29 cells; type: cell-based, human; conditions: HT29, 25 μg/mL, 24 h
Procedure: as §1

[4] = Ferric-reducing antioxidant power assay (FRAP)
Procedure: The antioxidant activity in the FRAP method determines the ability of the analyzed compounds to reduce iron ions. This allowed for the direct determination of the reducing capacity of the tested cannabinoids. The principle of the method was based on measuring the reduction in the tPtZ compound (iron-2,4,6-tripyridyl-S-[…] complex) under the influence of the cannabinoids. The following concentrations of the cannabinoids were prepared: 25, 100, and 200 μg/mL in Milli-Q water. […] The procedure was carried out as follows: each compound, at a concentration of 1 mL, was mixed with 1 mL of 0.2 M sodium phosphate buffer (pH 6.6) and 1 mL of 1% potassium ferricyanide. The mixture was vortexed and incubated for 30 min. at 37 °C. After the incubation, 1 mL of 10% trichloroacetic acid (w/v) was added to each sample, and the preparations were centrifuged at 1000 g for 5 min. Next, an equal volume of Milli-Q water and the upper layer of the samples (1 mL + 1 mL) were mixed with 100 μL of 0.1% ferric chloride and subjected to spectrophotometric reading at 700 nm using an EL800 Universal Microplate Reader (BioTek Instruments, Winooski, VT, USA). The higher the absorbance, the higher the iron ion-reducing activity of the tested cannabinoids is.

[5] = system: HT29 cells; assay: Neutral Red (NR) uptake assay, viability of HT29 cells; type: cell-based; conditions: Homo sapiens, HT-29; HT29 colon tumor cells, 24 h incubation
Procedure: as §2
(§3) After seeding (1 × 10^5 cells/mL) in a 96-well plate, the cells were incubated for 24 h. Thereafter, the tested compounds (100 μL) at a concentration range of 0–200 μg/mL in the culture medium were added to the wells (100 μL). The incubation lasted for 24 h. After that time, the culture medium was removed and a 0.4% Neutral Red solution in the culture medium was added to each well. The incubation was continued for another 3 h. After the incubation, the medium with the NR dye was discarded, and 4% paraformaldehyde in 1% CaCl2 was added for cell fixation (200 μL) and incubated for 3 min. Intracellular dye deposits were solubilized using 1% […] in a 50% ethanol solution (100 μL). The plates were then gently shaken (20 min.) at room temperature to dissolve and release the dye from the cells. Finally, spectrophotometric measurement was performed at 540 nm using an EL800 Universal Microplate Reader (BioTek Instruments, Winooski, VT, USA).

[6] = system: CCD 841 CoTr cells; assay: Neutral Red (NR) uptake assay, viability of CCD 841 CoTr cells; type: cell-based; conditions: Homo sapiens; CCD 841 CoTr colon normal cells, 24 h incubation
Procedure: as §2, §3

[7] = cannabinoid concentration 25 μg/mL
[8] = cannabinoid concentration 100 μg/mL
[9] = cannabinoid concentration 200 μg/mL

SMILES	Effect on cell cycle transitions (in words) [1]	Percentage of cells in G1 phase [1] [%]	Percentage of cells in G2 phase [1] [%]	Percentage of cells in S phase [1] [%]	Percentage of cells in sub-G1 phase [1] [%]	Reduction in the number of cells in the sub-G1 phase compared to the control [1] [%]	IC50 [2] [µg/mL]	Increase in the number of cells in the sub-G1 phase compared to the control [3] [%]	Percentage of cells in G1 phase [3] [%]	Percentage of cells in G2 phase [3] [%]	Percentage of cells in S phase [3] [%]	Percentage of cells in sub-G1 phase [3] [%]	Reduction in the number of cells in the G2 phase compared to the control [3] [%]	Reduction Value Corresponding to the Ascorbic Acid Concentration (FRAP) [4, 7] [µg/mL]	Reduction Value Corresponding to the Ascorbic Acid Concentration (FRAP) [4, 8] [µg/mL]	Reduction Value Corresponding to the Ascorbic Acid Concentration (FRAP) [4, 9]	IC50 [5] [µg/mL]	IC50 [6] [µg/mL]	Increase in the number of cells in the sub-G1 phase compared to the control [1] [%]	Effect on cell cycle transitions (in words) [3]
CCCCCc1cc(O)c2c(c1)OC(C)(CCC=C(C)C)C=C2 (stereo not shown) [CBC, cannabichromene]	limited the transition of cells from the S to G2 phase	32.31 ± 0.62	22.78 ± 0.86	23.38 ± 0.79	15.17 ± 0.79	6.96	176 (≈ 560 µM)	1.19	50.90 ± 0.73	26.23 ± 0.39	16.71 ± 0.37	2.52 ± 0.10	3.24	0.151 ± 0.001	0.453 ± 0.104	1.008 ± 0.403 µg/mL	60.6 (≈ 193 µM)	151 (≈ 480 µM)		
CCCCCc1cc2c3c(c1)OC(C)(C)C1CCC(C)(CC31)O2 (stereo not shown) [CBT, cannabicitran]	caused the accumulation of cells in the S phase	28.81 ± 0.86	16.54 ± 0.72	22.23 ± 0.15	28.84 ± 0.66		69.1 (≈ 220 µM)	17.93	41.86 ± 0.64	17.90 ± 0.81	18.64 ± 0.81	19.26 ± 0.67		0.353 ± 0.110	0.353 ± 0.201	0.504 ± 0.258 µg/mL	53.9 (≈ 171 µM)	44.5 (≈ 141 µM)	6.71	limited the transition of cells from the S phase to the G2 phase
CCCCCc1cc(O)cc(O)c1C/C=C(\C)CCC=C(C)C [abn-CBG, abnormal cannabigerol]		11.63 ± 0.83	3.46 ± 0.79	8.24 ± 0.56	76.10 ± 2.21		19.6 (≈ 62 µM)	80.59	7.97 ± 0.35	3.62 ± 0.54	5.09 ± 0.50	81.92 ± 1.80		0.857 ± 0.316	1.059 ± 0.328	1.411 µg/mL and 1.411 ± 0.465 µg/mL	13.7 (≈ 43.2 µM)	14.1 (≈ 44.6 µM)	53.97	
